Measured values from patent US6960611B2, “Sulfonyl-containing 2,3-diarylindole compounds, methods for making same, and methods of use thereof” (Institute of Materia Medica, priority 2002, dated 2005).

Tests used:
COX-2 = biological target: T1, COX-2 (Mus musculus, UniProt Q05769); experiment: COX-2 assay: PGE2 release (RIA) from LPS-stimulated mouse peritoneal macrophages; type: cell-based, mice; settings: LPS 1 mg/L 9 h, PGE2 by RIA
T1 construct: endogenous in cells; host or cells: thioglycollate-elicited peritoneal macrophages of male C57BL-6J mice, stimulated with LPS
T1 sequence (Q05769 18-604): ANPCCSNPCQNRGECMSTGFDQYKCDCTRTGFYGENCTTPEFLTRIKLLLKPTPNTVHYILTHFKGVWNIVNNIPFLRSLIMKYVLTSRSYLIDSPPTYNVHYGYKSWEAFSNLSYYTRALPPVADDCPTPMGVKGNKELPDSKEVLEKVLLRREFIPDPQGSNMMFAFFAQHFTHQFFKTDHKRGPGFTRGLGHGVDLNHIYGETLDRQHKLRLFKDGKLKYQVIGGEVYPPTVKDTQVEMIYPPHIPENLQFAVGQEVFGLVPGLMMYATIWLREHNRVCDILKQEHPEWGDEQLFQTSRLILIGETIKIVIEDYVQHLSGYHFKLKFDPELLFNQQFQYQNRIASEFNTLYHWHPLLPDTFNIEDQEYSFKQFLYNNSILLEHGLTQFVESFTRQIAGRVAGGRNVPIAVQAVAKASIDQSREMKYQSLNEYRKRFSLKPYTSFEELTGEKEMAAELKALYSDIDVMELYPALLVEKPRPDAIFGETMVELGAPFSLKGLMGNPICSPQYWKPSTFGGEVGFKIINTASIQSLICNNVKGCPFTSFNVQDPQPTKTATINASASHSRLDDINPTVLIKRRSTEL
Method: Cell culture: Adherent macrophages were harvested from the peritoneal cells of male mice (C57BL-6J, Level 2, from Experiment Animal Center, Academy of Military Medical Science) 3 d after the injection (ip) of brewer thioglycollate medium (5 mL/100 g body weight). […] Cell viability was examined by trypan blue dye exclusion. All incubation procedures were performed with 5% CO2 in humidified air at 37° C.
COX-2 assay: Macrophages were incubated with test compound at different concentrations or solvent (Me2SO) for 1 h and were stimulated with LPS 1 mg/L for 9 h. The amount of PGE2 in supernatants was measured by RIA. The inhibitory ratio was calculated using the same Formula as in COX-1 assay section. Cs, Ct, Cc refer to PGE2 concentration in supernatants of LPS, test compound, and control groups, respectively.
Statistical analysis: Data were expressed as the mean±SD of more than three independent experiments. Dose-inhibitory effect curves were fit through “uphill dose response curves, variable slope” using Prism, GraphPad (version 3.00): [formula]

[1] = test system: carrageenan-induced foot pad edema; experiment: Rat carrageenan-induced foot pad edema assay; type: in vivo; settings: 10 mg/kg oral
Method: Male Sprgue-Dawley rats (190-220 g ) were fasted with free access to water at least 16 h prior experiments. The rats were dosed orally with a 1 ml suspension of test compound in vehicle (0.5% methyl cellulose and 0.025% Tween-20) or with vehicle alone. One hour later a subplantar injection of 0.1 ml of 1% solution of carageenan in 0.9% strile saline was administered to the right hind foot pad. Paw volume was measured with a displacement plethysmometer 2, 3, and 4 h after carrageenan injection.

IC50 (COX-2)	melting point	Compound	inhibitory percentage of edema ([1]; 2 h after carrageenan)	inhibitory percentage of edema ([1]; 3 h after carrageenan)	inhibitory percentage of edema ([1]; 4 h after carrageenan)	edema (paw volume increase) ([1]; 2 h after carrageenan)	edema (paw volume increase) ([1]; 3 h after carrageenan)	edema (paw volume increase) ([1]; 4 h after carrageenan)
0.278 nM	–	2-(4-methylsulfonylphenyl)-3-phenyl-5-methylindole [Example 83]	46.1%	47.1%	46.1%	–	–	–
–	–	Cc1ccc(-c2cc(C(F)(F)F)nn2-c2ccc(S(N)(=O)=O)cc2)cc1 [Celecoxib, reference compound]	–	51.6%	48.0%	31.1 ± 7.87%	53.2 ± 12.6%	48.8 ± 8.11%
3.86 nM	221 to 222 °C	CS(=O)(=O)c1ccc(-c2[nH]c3ccccc3c2-c2ccccc2)cc1 [Example 59, 2-(4-methylsulfonylphenyl)-3-phenylindole]	–	55.8%	56.1%	40.8 ± 15.8%	48.6 ± 14%	41.2 ± 17.4%
0.161 nM	231 to 232 °C	NS(=O)(=O)c1ccc(-c2[nH]c3ccccc3c2-c2ccccc2)cc1 [Example 60, 2-(4-aminosulfonylphenyl)-3-phenylindole]	–	48.3%	53.9%	32.5 ± 9.45%	56.9 ± 16.4%	43.2 ± 13.9%
146 nM	198.5 to 200.5 °C	CS(=O)(=O)c1ccc(-c2[nH]c3ccccc3c2-c2ccc(Cl)cc2)cc1 [Example 61, 2-(4-methylsulfonylphenyl)-3-(4-chlorophenyl)indole]	–	51.1%	50.4%	14.6 ± 7.8%	30.6 ± 10%	25.7 ± 10.1%
0.0684 nM	293 to 295 °C	Cc1ccc(-c2c(-c3ccc(S(N)(=O)=O)cc3)[nH]c3ccccc23)cc1 [Example 66, 2-(4-aminosulfonylphenyl)-3-(4-methylphenyl)indole]	–	–	–	–	–	–
1.46 nM	251 to 253 °C	Cc1ccc(-c2c(-c3ccc(S(N)(=O)=O)cc3)[nH]c3ccccc23)cc1C [Example 68, 2-(4-aminosulfonylphenyl)-3-(3,4-dimethylphenyl)indole]	–	–	–	–	–	–
–	–	COc1ccc(-c2c(-c3ccc(S(N)(=O)=O)cc3)[nH]c3ccccc23)cc1 [Example 70, 2-(4-aminosulfonylphenyl)-3-(4-methoxyphenyl)indole]	–	44.7%	38.5%	21.9 ± 11.8%	34.6 ± 10.4%	31.9 ± 11.9%
–	224 to 226 °C	CS(=O)(=O)c1ccc(-c2[nH]c3ccccc3c2-c2ccc(F)cc2)cc1 [Example 71, 2-(4-methylsulfonylphenyl)-3-(4-fluorophenyl)indole]	–	11.1%	18.4%	44 ± 21.1%	54.4 ± 9.8%	49.1 ± 19%
85.1 nM	281 to 283 °C	CS(=O)(=O)c1ccc(-c2[nH]c3ccc(Cl)cc3c2-c2ccc(Cl)cc2)cc1 [Example 73, 2-(4-methylsulfonylphenyl)-3-(4-chlorophenyl)-5-chloroindole]	–	–	–	–	–	–
0.541 nM	245 to 247 °C	NS(=O)(=O)c1ccc(-c2[nH]c3ccc(Cl)cc3c2-c2ccc(Cl)cc2)cc1 [Example 74, 2-(4-aminosulfonylphenyl)-3-(4-chlorophenyl)-5-chloroindole]	–	–	–	–	–	–
–	281 to 283 °C	CS(=O)(=O)c1ccc(-c2[nH]c3ccc(Cl)cc3c2-c2ccccc2)cc1 [Example 76, 2-(4-methylsulfonylphenyl)-3-phenyl-5-chloroindole]	36.9%	52.8%	53.2%	45 ± 17.9%	46 ± 15.4%	37.7 ± 15.6%
100 nM	–	NS(=O)(=O)c1ccc(-c2[nH]c3ccc(Cl)cc3c2-c2ccccc2Cl)cc1 [Example 77, 2-(4-aminosulfonylphenyl)-3-(2-chlorophenyl) -5-chloro indole]	–	–	–	–	–	–
10 nM	300 to 301.5 °C	CS(=O)(=O)c1ccc(-c2[nH]c3ccc(Cl)cc3c2-c2ccccc2Cl)cc1 [Example 78, 2-(4-methylsulfonylphenyl)-3-(2-chlorophenyl) -5-chloro indole]	–	–	–	–	–	–
5 nM	310 to 312 °C	NS(=O)(=O)c1ccc(-c2[nH]c3ccc(Br)cc3c2-c2ccccc2)cc1 [Example 81, 2-(4-aminosulfonylphenyl)-3-phenyl-5-bromoindole]	–	–	–	–	–	–
1.41 nM	262 to 264 °C	CS(=O)(=O)c1ccc(-c2[nH]c3ccc(Br)cc3c2-c2ccccc2)cc1 [Example 82, 2-(4-methylsulfonylphenyl)-3-phenyl-5-bromoindole]	–	–	–	–	–	–
–	–	NS(=O)(=O)c1ccc(-c2[nH]c3ccc(Cl)cc3c2-c2cccc(Cl)c2)cc1 [Example 85, 2-(4-aminosulfonylphenyl)-3-(3-chlorophenyl)-5-chloroindole]	19.8%	36.1%	23.4%	57.2 ± 13.6%	62.3 ± 7.2%	61.7 ± 8.8%
0.801 nM	254 to 257 °C	CS(=O)(=O)c1ccc(-c2[nH]c3ccc(Cl)cc3c2-c2cccc(Cl)c2)cc1 [Example 86, 2-(4-methylsulfonylphenyl)-3-(3-chlorophenyl)-5-chloroindole]	–	–	–	–	–	–
1.48 nM	173 to 175 °C	CS(=O)(=O)c1ccc(-c2[nH]c3ccc(Cl)cc3c2-c2ccc(S(C)(=O)=O)cc2)cc1 [Example 88, 2-(4-methylsulfonylphenyl)-3-(4-methylsulfonylphenyl)-5-chloroindole]	–	–	–	–	–	–
1.68 nM	238 to 240 °C	Cc1ccc(-c2[nH]c3ccc(Cl)cc3c2-c2ccc(S(C)(=O)=O)cc2)cc1 [Example 91, 2-(4-methylphenyl)-3-(4-methylsulfonylphenyl)-5-chloroindole]	–	–	–	–	–	–
–	271 to 273 °C	CS(=O)(=O)c1ccc(-c2c(-c3ccc(O)cc3)[nH]c3ccc(Cl)cc23)cc1 [Example 95, 2-(4-hydroxyphenyl)-3-(4-methylsulfonylphenyl)-5-chloroindole]	–	–	–	–	–	–
6.44 nM	241 to 243 °C	NS(=O)(=O)c1ccc(-c2[nH]c3ccccc3c2-c2ccc(O)cc2)cc1 [Example 96, 2-(4-aminosulfonylphenyl)-3-(4-hydroxyphenyl)indole]	–	–	–	–	–	–
0.184 nM	221 to 222 °C	CC(=O)NS(=O)(=O)c1ccc(-c2[nH]c3ccccc3c2-c2ccccc2)cc1 [Example 97, 2-(N-acetamide-sulfonylphenyl)-3-phenylindole]	–	–	–	–	–	–
–	–	CS(=O)(=O)c1ccc(C2=C(c3ccccc3)C(=O)OC2)cc1 [Rofecoxib, reference compound]	29.5%	51.6%	52.6%	50.3 ± 5.1%	47.2 ± 2.4%	38.2 ± 6.7%
